The text below walks through data of patent US20200109126A1 (priority 2017, published 2020).

What is called Ki is a dissociation constant, usually derived from enzyme kinetics or from competition with a known ligand.

Read-outs that look alike come from different tables or passages of the source.

Assay [1] addresses hKOR (Homo sapiens, UniProt P41145). Nature of the assay: Receptor binding with [3H]diprenorphine at hKOR.
In assay [2] the target is hMOR (Homo sapiens, UniProt P35372). Nature of the assay: Receptor binding with [3H]diprenorphine at hMOR.
Sequence of hMOR (P35372 whole entry): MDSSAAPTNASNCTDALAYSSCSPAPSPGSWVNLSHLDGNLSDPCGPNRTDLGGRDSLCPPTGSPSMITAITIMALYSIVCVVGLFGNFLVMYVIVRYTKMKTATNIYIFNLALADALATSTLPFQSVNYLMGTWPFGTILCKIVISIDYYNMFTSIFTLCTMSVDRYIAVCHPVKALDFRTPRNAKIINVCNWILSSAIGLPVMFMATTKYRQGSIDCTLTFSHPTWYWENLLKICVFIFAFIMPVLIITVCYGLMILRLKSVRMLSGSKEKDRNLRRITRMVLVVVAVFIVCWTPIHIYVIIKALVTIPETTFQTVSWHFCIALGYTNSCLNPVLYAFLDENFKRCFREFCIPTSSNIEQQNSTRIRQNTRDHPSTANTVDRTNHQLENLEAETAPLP
Assay [3] has as its target humanDOR (Homo sapiens, UniProt P41143). Nature of the assay: Receptor binding with [3H]diprenorphine at human DOR.
Setting [4] is: PZM analogs, (n) = number of independent experiments, read-out: binding affinity Ki hKOR.
[5] abbreviates: PZM analogs, (n) = number of independent experiments, read-out: binding affinity Ki hMOR.
[6] abbreviates: PZM analogs, (n) = number of independent experiments, read-out: binding affinity Ki hDOR.
Where [7] appears, read: ± SD (two experiments) or SEM, (n) experiments, read-out: hKOR [3H]dyprenorphine Ki.
Where [8] appears, read: ± SD (two experiments) or SEM, (n) experiments, read-out: humanDOR [3H]dyprenorphine Ki.
Where [9] appears, read: ± SD (two experiments) or SEM, (n) experiments, read-out: hMOR [3H]dyprenorphine Ki.

Sequence of humanDOR (P41143 whole entry): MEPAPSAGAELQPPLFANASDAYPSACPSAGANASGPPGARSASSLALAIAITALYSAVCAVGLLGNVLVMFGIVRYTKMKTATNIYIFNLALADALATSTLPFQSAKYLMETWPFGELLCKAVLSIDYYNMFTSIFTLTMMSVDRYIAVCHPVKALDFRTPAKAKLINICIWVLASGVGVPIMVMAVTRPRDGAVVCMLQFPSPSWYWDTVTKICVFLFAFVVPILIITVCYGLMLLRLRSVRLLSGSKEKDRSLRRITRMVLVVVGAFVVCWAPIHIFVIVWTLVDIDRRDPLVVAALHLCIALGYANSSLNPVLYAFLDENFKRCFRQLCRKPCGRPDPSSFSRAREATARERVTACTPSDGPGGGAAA
Sequence of hKOR (P41145 whole entry): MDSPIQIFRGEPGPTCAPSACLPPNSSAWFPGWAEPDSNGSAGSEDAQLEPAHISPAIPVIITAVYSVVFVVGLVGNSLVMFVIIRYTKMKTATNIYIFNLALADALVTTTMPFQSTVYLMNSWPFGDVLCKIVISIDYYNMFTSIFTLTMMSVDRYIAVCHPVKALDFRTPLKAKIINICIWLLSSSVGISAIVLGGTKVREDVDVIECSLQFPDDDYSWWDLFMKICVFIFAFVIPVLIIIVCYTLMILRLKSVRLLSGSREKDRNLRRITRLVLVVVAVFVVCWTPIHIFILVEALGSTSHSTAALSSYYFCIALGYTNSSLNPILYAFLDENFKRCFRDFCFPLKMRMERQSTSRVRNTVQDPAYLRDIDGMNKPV

With `CN(C)[C@@H](CNC(=O)NCCc1ccsc1)Cc1ccccc1`, the values for the Ki in assay [1] (setting [4]), in assay [2] (setting [5]) and in assay [3] (setting [6]) were 8100 nM, 4200 nM and 25000 nM, respectively.
`CN(C)[C@H](CNC(=O)NCCc1ccsc1)Cc1ccccc1`: the values for the inhibition constant (Ki) in assay [1] (setting [4]), in assay [2] (setting [5]) and in assay [3] (setting [6]) were 3100 nM, 350 nM and 4500 nM, respectively.
On to `C[C@@H](Cc1ccsc1)NC(=O)NC[C@@H](Cc1ccccc1)N(C)C`, for which the figures for the Ki in assay [1] (setting [4]) and in assay [3] (setting [6]) were 3100 nM and 11000 nM, respectively.
Regarding `C=CCN(C[C@H](Cc1ccccc1)N(C)C)C(=O)N[C@@H](C)Cc1ccsc1`, the Ki was 1700 nM in assay [1] (setting [4]), 3200 nM in assay [2] (setting [5]) and around 15000 nM in assay [3] (setting [6]).
Take `C=CCN(C[C@H](Cc1ccccc1)N(C)C)C(=O)N[C@H](C)Cc1ccsc1`: the Ki in assay [1] (setting [4]) was 3100 nM; in assay [2] (setting [5]), 4100 nM; in assay [3] (setting [6]) it was around 15000 nM.
In the case of `CN(C)[C@@H](CNC(=O)NC(C)(C)Cc1ccsc1)Cc1ccccc1`, the Ki in assay [1] (setting [4]) amounted to 960 nM; in assay [2] (setting [5]), 180 nM; in assay [3] (setting [6]), 2400 nM.
For the molecule `CN(C)[C@H](CNC(=O)NC(C)(C)Cc1ccsc1)Cc1ccccc1`, the results for the Ki in assay [1] (setting [4]), in assay [2] (setting [5]) and in assay [3] (setting [6]) were 790 nM, 210 nM and 3000 nM, respectively.
Turning to `CN(C)[C@@H](CNC(=O)NC(C)(C)Cc1ccccc1)Cc1ccccc1`, the Ki in assay [1] (setting [4]) was determined as 1100 nM; in assay [2] (setting [5]), 640 nM; in assay [3] (setting [6]) it was 1000 nM.
The like results for `CN(C)[C@H](CNC(=O)NC(C)(C)Cc1ccccc1)Cc1ccccc1` were, in that order, 930 nM, 490 nM and 3300 nM.
The like results for `CN(C)[C@@H](CNC(=O)NCCc1ccsc1)Cc1ccc(O)cc1` were, in that order, 5200 nM, 1500 nM and 11000 nM.
Turning to `CN(C)[C@H](CNC(=O)OCCc1ccsc1)Cc1ccc(O)cc1`, the figures for the Ki in assay [1] (setting [4]), in assay [2] (setting [5]) and in assay [3] (setting [6]) were 190 nM, 170 nM and 570 nM, respectively.
`CN[C@H](CNC(=O)NCCc1ccccc1)Cc1ccc(O)cc1`: the Ki in assay [2] (setting [5]) amounted to 290 nM.
Regarding `C[C@H](Cc1ccsc1)NC(=O)NC[C@@H](Cc1ccc(O)cc1)N(C)C`, the Ki was determined as 3100 nM in assay [1] (setting [4]) and 4100 nM in assay [3] (setting [6]).
On to `C[C@@H](Cc1ccsc1)NC(=O)NC[C@@H](Cc1ccc(O)cc1)N(C)C`, for which the inhibition constant (Ki) in assay [1] (setting [4]) came to 2300 nM; in assay [3] (setting [6]), 4800 nM.
As to `CN(C)[C@H](CNC(=O)CCCc1ccccc1)Cc1ccc(O)cc1`, the Ki came out at 100 nM in assay [1] (setting [4]), 72 nM in assay [2] (setting [5]) and 370 nM in assay [3] (setting [6]).
As to `C[C@H](Cc1csc2ccccc12)NC(=O)NC[C@H](Cc1ccc(O)cc1)N(C)C`, the Ki was 67 nM in assay [1] (setting [4]), 43 nM in assay [2] (setting [5]) and 83 nM in assay [3] (setting [6]).
The like results for `CC(C)N(C[C@H](Cc1ccc(O)cc1)N(C)C)C(=O)N[C@@H](C)c1cccc2ccccc12` were, in that order, 920 nM, 400 nM and 570 nM.
For `CN(C)[C@@H](CNC(=O)NC(C)(C)Cc1ccsc1)Cc1ccc(O)cc1`, in that order: 1300 nM, 310 nM and 2900 nM.
For `CN(C)[C@@H](CNC(=O)NC(C)(C)Cc1ccccc1)Cc1ccc(O)cc1`, in that order: 1500 nM, 460 nM and 3600 nM.
For `C[C@@H](Cc1ccsc1)NC(=O)NC[C@H](Cc1ccnc(O)c1)N(C)C`, the Ki in assay [1] (setting [4]) is 1200 nM; in assay [2] (setting [5]), 210 nM; in assay [3] (setting [6]), 4100 nM.
With `Cc1cc(O)cc(C)c1C[C@@H](CNC(=O)NCCc1ccsc1)N(C)C`, the Ki stood at 27 nM in assay [1] (setting [4]), 6.2 nM in assay [2] (setting [5]) and 51 nM in assay [3] (setting [6]).
Regarding `CN(C)[C@H](CNC(=O)NCCc1cn(Cc2ccccc2)nn1)Cc1ccc(O)cc1`, the values for the Ki in assay [1], in assay [2] and in assay [3] (setting [6]) were 1400 nM, 200 nM and 380 nM, respectively.
In turn, `CN(CCCl)C(CNC(=O)NCCc1ccccc1)Cc1ccc(O)cc1` (stereo not shown) displayed a Ki in assay [3] (binding affinity Ki hDOR, PZM analogs, (n) = number of independent experiments) of 360 nM.
With `CN(CCO)C(CNC(=O)NCCc1ccccc1)Cc1ccc(O)cc1` (stereo not shown), the Ki came to 1300 nM in assay [1], 970 nM in assay [2] and 1800 nM in assay [3].
Consider `CN[C@H](CNC(=O)N[C@@H](C)Cc1ccsc1)Cc1ccc(O)cc1`, for which the Ki in assay [1] (setting [4]) was determined as 240 nM; in assay [3] (setting [6]) it was 700 nM.
`C[C@@H](Cc1ccsc1)NC(=O)NCC(Cc1ccc(O)cc1)N(C)Cc1ccccc1` (stereo partly shown): the Ki in assay [1] (setting [4]) turned out to be 210 nM; in assay [2] (setting [5]), 220 nM; in assay [3] (setting [6]) it was 720 nM.
For `COc1ccccc1CCNC(=O)NCC(Cc1ccc(O)cc1)N(C)C` (stereo not shown), in that order: 140 nM, 22 nM and 150 nM.
For `COc1cccc(CCNC(=O)NCC(Cc2ccc(O)cc2)N(C)C)c1` (stereo not shown), in that order: 1300 nM, 110 nM and 220 nM.
As to `COc1ccc(CCNC(=O)NCC(Cc2ccc(O)cc2)N(C)C)cc1` (stereo not shown), the values for the inhibition constant Ki in assay [1] (setting [4]), in assay [2] (setting [5]) and in assay [3] (setting [6]) were 1500 nM, 330 nM and 10000 nM, respectively.
The like results for `CN(C)C(CNC(=O)NCCc1ccccc1F)Cc1ccc(O)cc1` (stereo not shown) were, in that order, 440 nM, 43 nM and 53 nM.
In the case of `CN(C)C(CNC(=O)NCCc1cccc(F)c1)Cc1ccc(O)cc1` (stereo not shown), the Ki in assay [1] (setting [4]) worked out at 170 nM; in assay [2] (setting [5]), 36 nM; in assay [3] (setting [6]) it was 250 nM.
With `CN(C)C(CNC(=O)NCCc1ccc(F)cc1)Cc1ccc(O)cc1` (stereo not shown), the Ki came out at 190 nM in assay [1] (setting [4]), 27 nM in assay [2] (setting [5]) and 250 nM in assay [3] (setting [6]).
For the molecule `O=C(NCCc1ccccc1)NC[C@H](Cc1ccc(O)cc1)N1CCCC1`, the figures for the Ki in assay [1] (setting [4]), in assay [2] (setting [5]) and in assay [3] (setting [6]) were 770 nM, 660 nM and 1500 nM, respectively.
With `CN(C)[C@H](CNC(=O)NCCN1C(=O)C2C3C=CC(O3)C2C1=O)Cc1ccc(O)cc1` (stereo partly shown), the Ki in assay [1] was 8200 nM; in assay [2], 2300 nM; in assay [3], 36000 nM.
As for `CC(Cc1csc2ccccc12)NC(=O)NC[C@H](Cc1ccc(O)cc1)N(C)C` (mixture of isomers), the figures for the Ki in assay [1] (setting [4]) and in assay [2] (setting [5]) were 19 nM and 14 nM, respectively.
As to `C[C@H](NC(=O)NC[C@H](Cc1ccc(O)cc1)N(C)C)c1ccccc1` (single isomer, unassigned), the Ki in assay [1] (setting [4]) worked out at 35 nM; in assay [2] (setting [5]), 38 nM; in assay [3] (setting [6]) it was 590 nM.
Regarding `CC(Cc1ccsc1)NC(=O)NCC(Cc1ccc(O)cc1)N(C)C` (single isomer, unassigned) [BD 122DR], the Ki is 3100 nM in assay [1] (setting [7]) and 4100 nM in assay [3] (setting [8]).
The like results for `CC(Cc1ccsc1)NC(=O)NCC(Cc1ccc(O)cc1)N(C)C` (single isomer, unassigned) [BD 122DS] were, in that order, 2300 nM and 4800 nM.
Consider `CC(Cc1ccsc1)NC(=O)NCC(Cc1ccccc1)N(C)C` (single isomer, unassigned) [BD 127DR], for which the Ki in assay [1] (setting [7]) turned out to be 5000 nM; in assay [3] (setting [8]) it was 12000 nM.
For `CC(Cc1ccsc1)NC(=O)NCC(Cc1ccccc1)N(C)C` (single isomer, unassigned) [BD 127DS], in that order: 3100 nM and 11000 nM.
`CC(Cc1ccsc1)NC(=O)NCC(Cc1ccccc1)N(C)C` (single isomer, unassigned) [BD 127LR]: the figures for the Ki in assay [1] (setting [7]) and in assay [3] (setting [8]) were 1300 nM and 1800 nM, respectively.
For `C[C@@H](Cc1ccsc1)NC(=O)NC[C@H](Cc1ccccc1)N(C)C` [BD 127LS], in that order: 1000 nM and 2800 nM.
With `CN(C)[C@H](CNC(=O)NC(C)(C)Cc1ccsc1)Cc1cccc(O)c1` [DD 46L, (S)-1-(2-(dimethylamino)-3-(3-hydroxyphenyl)propyl)-3-(2-methyl-1-(thiophen-3-yl)propan-2-yl)urea], the Ki in assay [1] (setting [7]) was 32 nM; in assay [2] (setting [9]), 25 nM; in assay [3] (setting [8]), 190 nM.
In the case of `C[C@H](NC(=O)NC[C@H](Cc1ccc(O)cc1)N(C)C)c1cccc2ccccc12` [DD 50LS, 1-((S)-2-(dimethylamino)-3-(4-hydroxyphenyl)propyl)-3-((S)-1-(naphthalen-1-yl)ethyl)urea], the results for the Ki in assay [1] (setting [7]), in assay [2] (setting [9]) and in assay [3] (setting [8]) were 71 nM, 84 nM and 570 nM, respectively.
For the molecule `Cc1ccc([C@H](C)NC(=O)NC[C@H](Cc2ccc(O)cc2)N(C)C)cc1` [DD 51LS, 1-((S)-2-(dimethylamino)-3-(4-hydroxyphenyl)propyl)-3-((S)-1-(p-tolyl)ethyl)urea], the Ki came out at 180 nM in assay [1], 150 nM in assay [2] and 700 nM in assay [3].
On to `C[C@H](Cc1ccccc1)NC(=O)NC[C@H](Cc1ccc(O)cc1)N(C)C` [DD 61L-A, 1-((S)-2-(dimethylamino)-3-(4-hydroxyphenyl)propyl)-3-((R)-1-phenylpropan-2-yl)urea], for which the Ki in assay [1] (setting [7]) came to 67 nM; in assay [2] (setting [9]), 81 nM; in assay [3] (setting [8]), 91 nM.
Turning to `C[C@H](Cc1ccsc1)NC(=O)NC[C@@H](Cc1ccccc1)N(C)C` [drawing 489], the Ki in assay [1] (setting [4]) was 5000 nM; in assay [3] (setting [6]), 12000 nM.
For `C[C@@H](Cc1ccsc1)NC(=O)NC[C@H](Cc1ccccc1)N(C)C` [drawing 492], in that order: 1000 nM and 2800 nM.
For the molecule `CN(C)[C@H](CNC(=O)NCCc1ccsc1)Cc1ccc(O)cc1` [drawing 500], the Ki stood at 150 nM in assay [1] (setting [4]), 43 nM in assay [2] (setting [5]) and 330 nM in assay [3] (setting [6]).
Turning to `CN(CC1CC1)[C@H](CNC(=O)NCCc1ccccc1)Cc1ccc(O)cc1` [drawing 507], the Ki in assay [2] (setting [5]) came out at 760 nM.
In the case of `C[C@@H](Cc1ccsc1)NC(=O)NC[C@H](Cc1ccc(O)cc1)N(C)C` [drawing 512], the figures for the inhibition constant Ki in assay [1] (setting [4]) and in assay [3] (setting [6]) were 18 nM and 1000 nM, respectively.
